Tested on: human subjects (skin of the back)
Test: 14-Day Cumulative Irritation Assay (occlusive patch, comparative dermal irritation potential)
Type: in vivo
Excerpt: In the following study, the tested solutions were at a total surfactant actives content of 0.5% by weight. […] 14-Day Cumulative Irritation Assay of the Comparitive Dermal Irritation Potential of a Series of Test Articles The objective of this study was to determine the comparative dermal irritation potential of a series of nine (9) test articles on twenty-five (25) subjects using a 14-Day Cumulative Irritation Assay. Twenty-five (25) subjects, 1 male and 24 females, ranging in age from 18 to 55 years were empaneled for this test. […] Each day during the duration of the study, patches were removed and the sites were evaluated for irritation using the 6-point scoring system outlined below. […] This procedure was repeated at each visit for a period of fourteen (14) consecutive days, excluding Sundays (Saturday's patches were worn until Monday. Monday's irritation scores were recorded as Sunday's scores and Sunday was counted as an exposure day). Patch test sites were evaluated daily and scores were recorded on a Cumulative Irritation Patch Test recording form. Individual test article scores were calculated via summation of the results for each day. […] The following day's score was “carried back” and recorded for the missed visit day. […]

CCCCCCCCCCCCOS(=O)(=O)[O-].[Na+] [Test Article #9, Sodium lauryl sulphate]
Total Cum. Irrit. Scores (sum of total cumulative score for 14 days, 22 subjects, highest possible 924, solutions at 0.5% total surfactant actives): 844.5
Mean Cum. Irrit. Scores (total divided by 22 subjects, highest possible 42, 14 days, 0.5% total surfactant actives): 38.4
